Each molecule was assayed against T1, MAGL (Homo sapiens, UniProt Q99685) (assay: 2-AG assay (MAGL inhibitory activity; hydrolysis of 2-arachidonoylglycerol to arachidonic acid followed by mass spectrometry)). Details: 15 min preincubation at RT, 8 μM 2-arachidonoylglycerol, 30 min at RT, RapidFire MS readout.
T1 sequence (Q99685 1-303): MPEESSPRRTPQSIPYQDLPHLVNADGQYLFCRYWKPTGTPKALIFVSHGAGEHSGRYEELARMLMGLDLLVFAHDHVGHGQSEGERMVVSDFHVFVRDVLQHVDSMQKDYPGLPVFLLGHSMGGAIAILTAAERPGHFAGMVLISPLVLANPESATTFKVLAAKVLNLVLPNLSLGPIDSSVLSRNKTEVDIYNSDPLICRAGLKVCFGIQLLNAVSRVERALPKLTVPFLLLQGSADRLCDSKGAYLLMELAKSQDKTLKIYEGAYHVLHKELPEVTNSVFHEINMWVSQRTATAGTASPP
Assay type: biochemical
How it was run: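 Compounds (final 12.5 μM to […], 3-fold steps) preincubated 15 min at RT with MAGL ([…]) in 50 mM TRIS, 1 mM EDTA, Tween buffer. Reaction started with 8 μM 2-arachidonoylglycerol, run 30 min at RT, quenched with ACN containing d8-arachidonic acid. Arachidonic acid quantified by RapidFire SPE-triple quadrupole MS (negative ESI), activity from arachidonic acid/d8 ratio.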

Row | IC50 | SMILES
1 | 144 nM | O=C(c1cccc(-c2n[nH]c(=O)o2)c1Cl)N1CCN2C[C@@H](c3ccc(F)c(Cl)c3)OC[C@@H]2C1 [Example 134, 5-[3-[(3R,9aS)-3-(3-chloro-4-fluoro-phenyl)-3,4,6,7,9,9a-hexahydro-1H-pyrazino[2,1-c][1,4]oxazine-8-carbonyl]-2-chloro-phenyl]-3H-1,3,4-oxadiazol-2-one]
2 | 146 nM | COc1cccc(C(=O)N2CCN3C[C@@H](c4cc(Cl)c(F)c(C#N)c4)OC[C@@H]3C2)c1Cl [Example 135, 5-[(3R,9aS)-8-(2-chloro-3-methoxy-benzoyl)-3,4,6,7,9,9a-hexahydro-1H-pyrazino[2,1-c][1,4]oxazin-3-yl]-3-chloro-2-fluoro-benzonitrile]
3 | 152 nM | COc1cccc(C(=O)N2CCN3C[C@@](O)(c4ccc(C(F)(F)F)[nH]c4=O)OC[C@@H]3C2)c1Cl [Example 136, 3-[(3R,9aS)-8-(2-chloro-3-methoxy-benzoyl)-3-hydroxy-1,4,6,7,9,9a-hexahydropyrazino[2,1-c][1,4]oxazin-3-yl]-6-(trifluoromethyl)-1H-pyridin-2-one]
4 | 182 nM | COc1cccc(C(=O)N2CCN3C[C@@H](c4ccc(-c5cnco5)c(Cl)c4)OC[C@@H]3C2)c1Cl [Example 137, [(3R,9aS)-3-(3-chloro-4-oxazol-5-yl-phenyl)-3,4,6,7,9,9a-hexahydro-1H-pyrazino[2,1-c][1,4]oxazin-8-yl]-(2-chloro-3-methoxy-phenyl)methanone]
5 | 190 nM | N#Cc1cc(-c2cccc(C(=O)N3CCN4C[C@@H](c5ccc(F)c(Cl)c5)OC[C@@H]4C3)c2Cl)n[nH]1 [Example 138, 3-[3-[(3R,9aS)-3-(3-chloro-4-fluoro-phenyl)-3,4,6,7,9,9a-hexahydro-1H-pyrazino[2,1-c][1,4]oxazine-8-carbonyl]-2-chloro-phenyl]-1H-pyrazole-5-carbonitrile]
6 | 254 nM | COc1cccc(C(=O)N2CCN3C[C@@](O)(c4csc(-c5ccc(F)cc5)n4)OC[C@@H]3C2)c1Cl [Example 139, [(3S,9aS)-3-[2-(4-fluorophenyl)thiazol-4-yl]-3-hydroxy-1,4,6,7,9,9a-hexahydropyrazino[2,1-c][1,4]oxazin-8-yl]-(2-chloro-3-methoxy-phenyl)methanone]
7 | 277 nM | O=C(c1cccc(-c2n[nH]cc2F)c1Cl)N1CCN2C[C@@H](c3cc(Cl)c[nH]c3=O)OC[C@@H]2C1 [Example 140, 3-[(3R,9aS)-8-[2-chloro-3-(4-fluoro-1H-pyrazol-3-yl)benzoyl]-3,4,6,7,9,9a-hexahydro-1H-pyrazino[2,1-c][1,4]oxazin-3-yl]-5-chloro-1H-pyridin-2-one]
8 | 288 nM | COc1cccc(C(=O)N2CCN3C[C@@](O)(c4cccc(C(F)(F)F)c4)OC[C@@H]3C2)c1Cl [Example 141, [(3R,9aS)-3-hydroxy-3-[3-(trifluoromethyl)phenyl]-1,4,6,7,9,9a-hexahydropyrazino[2,1-c][1,4]oxazin-8-yl]-(2-chloro-3-methoxy-phenyl)methanone]
9 | 332 nM | COc1cccc(C(=O)N2CCN3C[C@@](O)(c4cccc(F)c4F)OC[C@@H]3C2)c1Cl [Example 142, [(3R,9aS)-3-(2,3-difluorophenyl)-3-hydroxy-1,4,6,7,9,9a-hexahydropyrazino[2,1-c][1,4]oxazin-8-yl]-(2-chloro-3-methoxy-phenyl)methanone]
10 | 348 nM | COc1cccc(C(=O)N2CCN3C[C@@](O)(c4cc(-c5ccccc5)no4)OC[C@@H]3C2)c1Cl [Example 143, [(3S,9aS)-3-hydroxy-3-(3-phenylisoxazol-5-yl)-1,4,6,7,9,9a-hexahydropyrazino[2,1-c][1,4]oxazin-8-yl]-(2-chloro-3-methoxy-phenyl)methanone]
11 | 355 nM | COc1cccc(C(=O)N2CCN3C[C@@](O)(c4cc(F)c(F)cc4F)OC[C@@H]3C2)c1Cl [Example 144, [(3R,9aS)-3-hydroxy-3-(2,4,5-trifluorophenyl)-1,4,6,7,9,9a-hexahydropyrazino[2,1-c][1,4]oxazin-8-yl]-(2-chloro-3-methoxy-phenyl)methanone]
12 | 363 nM | COc1cccc(C(=O)N2CCN3CC(c4ccc(F)c(-c5cnco5)c4)OC[C@@H]3C2)c1Cl (stereo partly drawn) [Example 145, [(9aS)-3-(4-fluoro-3-oxazol-5-yl-phenyl)-3,4,6,7,9,9a-hexahydro-1H-pyrazino[2,1-c][1,4]oxazin-8-yl]-(2-chloro-3-methoxy-phenyl)methanone]
13 | 378 nM | COc1cccc(C(=O)N2CCN3C[C@@](O)(c4nc5ccccc5s4)OC[C@@H]3C2)c1Cl [Example 146, [(3S,9aS)-3-(1,3-benzothiazol-2-yl)-3-hydroxy-1,4,6,7,9,9a-hexahydropyrazino[2,1-c][1,4]oxazin-8-yl]-(2-chloro-3-methoxy-phenyl)methanone]
14 | 385 nM | COc1ccc(F)c(C(=O)N2CCN3C[C@@H](c4cc(Cl)c[nH]c4=O)OC[C@@H]3C2)c1Cl [Example 147, 3-[(3R,9aS)-8-(2-chloro-6-fluoro-3-methoxy-benzoyl)-3,4,6,7,9,9a-hexahydro-1H-pyrazino[2,1-c][1,4]oxazin-3-yl]-5-chloro-1H-pyridin-2-one]
15 | 426 nM | COc1cccc(C(=O)N2CCN3C[C@@H](c4ccc(Cl)c(C(F)(F)F)n4)OC[C@@H]3C2)c1Cl [Example 148, [(3S,9aS)-3-[5-chloro-6-(trifluoromethyl)-2-pyridyl]-3,4,6,7,9,9a-hexahydro-1H-pyrazino[2,1-c][1,4]oxazin-8-yl]-(2-chloro-3-methoxy-phenyl)methanone]
16 | 468 nM | COc1cccc(C(=O)N2CCN3C[C@@H](c4cccc(F)c4F)OC[C@@H]3C2)c1Cl [Example 149, [(3R,9aS)-3-(2,3-difluorophenyl)-3,4,6,7,9,9a-hexahydro-1H-pyrazino[2,1-c][1,4]oxazin-8-yl]-(2-chloro-3-methoxy-phenyl)methanone]
17 | 546 nM | COc1cccc(C(=O)N2CCN3C[C@@](O)(c4ccccc4Cl)OC[C@@H]3C2)c1Cl [Example 150, [(3R,9aS)-3-(2-chlorophenyl)-3-hydroxy-1,4,6,7,9,9a-hexahydropyrazino[2,1-c][1,4]oxazin-8-yl]-(2-chloro-3-methoxy-phenyl)methanone]
18 | 575 nM | N#Cc1cc(-c2cc(F)cc(C(=O)N3CCN4C[C@H](c5c[nH]c(C(F)(F)F)cc5=O)OC[C@@H]4C3)c2Cl)c[nH]1 [Example 151, 4-[3-[(3S,9aS)-3-[4-oxo-6-(trifluoromethyl)-1H-pyridin-3-yl]-3,4,6,7,9,9a-hexahydro-1H-pyrazino[2,1-c][1,4]oxazine-8-carbonyl]-2-chloro-5-fluoro-phenyl]-1H-pyrrole-2-carbonitrile]
19 | 581 nM | N#Cc1ncc(-c2cccc(C(=O)N3CCN4C[C@@](O)(c5ccc(F)c(F)c5)OC[C@@H]4C3)c2Cl)[nH]1 [Example 152, 5-[3-[(3R,9aS)-3-(3,4-difluorophenyl)-3-hydroxy-1,4,6,7,9,9a-hexahydropyrazino[2,1-c][1,4]oxazine-8-carbonyl]-2-chloro-phenyl]-1H-imidazole-2-carbonitrile]
20 | 705 nM | COc1cccc(C(=O)N2CCN3C[C@@](O)(c4ccc(C(F)(F)F)nc4C)OC[C@@H]3C2)c1Cl [Example 153, [(3R,9aS)-3-hydroxy-3-[2-methyl-6-(trifluoromethyl)-3-pyridyl]-1,4,6,7,9,9a-hexahydropyrazino[2,1-c][1,4]oxazin-8-yl]-(2-chloro-3-methoxy-phenyl)methanone]
21 | 769 nM | COc1cccc(C(=O)N2CCN3C[C@@](O)(c4cc(Cl)cc(-c5cnco5)c4)OC[C@@H]3C2)c1Cl [Example 154, [(3R,9aS)-3-(3-chloro-5-oxazol-5-yl-phenyl)-3-hydroxy-1,4,6,7,9,9a-hexahydropyrazino[2,1-c][1,4]oxazin-8-yl]-(2-chloro-3-methoxy-phenyl)methanone]
22 | 780 nM | COc1cccc(C(=O)N2CCN3C[C@@H](c4ccc(C(F)(F)F)[nH]c4=O)OC[C@@H]3C2)c1Cl [Example 155, 3-[(3R,9aS)-8-(2-chloro-3-methoxy-benzoyl)-3,4,6,7,9,9a-hexahydro-1H-pyrazino[2,1-c][1,4]oxazin-3-yl]-6-(trifluoromethyl)-1H-pyridin-2-one]
23 | 815 nM | COc1cccc(C(=O)N2CCN3CC(c4ccc(F)c(-c5ccn(C)c5)c4)OC[C@@H]3C2)c1Cl (stereo partly drawn) [Example 156, [(9aS)-3-[4-fluoro-3-(1-methylpyrrol-3-yl)phenyl]-3,4,6,7,9,9a-hexahydro-1H-pyrazino[2,1-c][1,4]oxazin-8-yl]-(2-chloro-3-methoxy-phenyl)methanone]
24 | 849 nM | COc1cccc(C(=O)N2CCN3C[C@@](O)(c4cc(Br)no4)OC[C@@H]3C2)c1Cl [Example 157, [(3S,9aS)-3-(3-bromoisoxazol-5-yl)-3-hydroxy-1,4,6,7,9,9a-hexahydropyrazino[2,1-c][1,4]oxazin-8-yl]-(2-chloro-3-methoxy-phenyl)methanone]
25 | 1020 nM | O=C(c1cccc(-c2c[nH]ncc2=O)c1Cl)N1CCN2C[C@@H](c3ccc(F)c(Cl)c3)OC[C@@H]2C1 [Example 158, 5-[3-[(3R,9aS)-3-(3-chloro-4-fluoro-phenyl)-3,4,6,7,9,9a-hexahydro-1H-pyrazino[2,1-c][1,4]oxazine-8-carbonyl]-2-chloro-phenyl]-1H-pyridazin-4-one]

Reference: US12662490B2, “Heterocyclic compounds” (Hoffmann-La Roche Inc., priority 2019, dated 2026)
